These results are taken from ChEMBL document CHEMBL1146412, “Sch 54445: a new polycyclic xanthone with highly potent antifungal activity produced by Actinoplanes sp” (J Nat Prod, 1997).

The data set in a line: Toxicity in iv dosed mouse. As to conditions: in vivo. The data set is classed as organism-based.

For orientation: LD50 means the dose at which mortality reaches 50%. The low end stands for a more toxic substance, the high end for a less toxic substance. With `CCC(C)c1cc2c(Cl)c3c(c(O)c2c(=O)n1N)-c1c(O)c2c(c4c1[C@@H](C3)OCO4)O[C@H]1[C@@H](C2=O)[C@@H](O)C=C[C@H]1OC` (stereo partly specified), the median lethal dose (LD50) worked out at 1 mg/kg.
